Tests used:
Format in all cases: in vivo
Phaedon cochleariae = assay: Phaedon test (PHAECO spray treatment); conditions: application rate 500 g/ha, after 7 days, Chinese cabbage leaf discs
Method: Phaedon Test ([…] Spray Treatment) [table] To produce a suitable preparation of active compound, 1 part by weight of active compound is mixed with the stated amount of solvent and emulsifier, and the concentrate is diluted with emulsifier-containing water to the desired concentration. Discs of Chinese cabbage (Brassica pekinensis) are sprayed with an active compound preparation of the desired concentration and, after drying, populated with larvae of the mustard beetle (Phaedon cochleariae). After 7 days, the effect in % is determined 100% means that all beetle larvae have been killed; 0% means that none of the beetle larvae have been killed. Phaedon Test ([…] Spray Treatment) To produce a suitable preparation of active compound, 1 part by weight of active compound is mixed with the stated amount of solvent and emulsifier, and the concentrate is diluted with emulsifier-containing water to the desired concentration. Discs of Chinese cabbage (Brassica pekinensis) are sprayed with an active compound preparation of the desired concentration and, after drying, populated with larvae of the mustard beetle (Phaedon cochleariae). After the desired period of time, the activity in % is determined. 100% means that all beetle larvae have been killed; 0% means that none of the beetle larvae have been killed.

Myzus persicae [1] = assay: Myzus test (MYZUPE spray treatment); conditions: application rate 500 g/ha, after 5 days, Chinese cabbage leaf discs
Method: Myzus Test (MYZUPE Spray Treatment) [table] To produce a suitable preparation of active compound, 1 part by weight of active compound is mixed with the stated amount of solvent and emulsifier, and the concentrate is diluted with emulsifier-containing water to the desired concentration. Discs of Chinese cabbage (Brassica pekinensis) infected by all stages of the green peach aphid (Myzus persicae) are sprayed with an active compound preparation of the desired concentration. After 5 days, the effect in % is determined 100% means that all of the aphids have been killed; 0% means that none of the aphids have been killed. Myzus Test (MYZUPE Spray Treatment) To produce a suitable preparation of active compound, 1 part by weight of active compound is mixed with the stated amount of solvent and emulsifier, and the concentrate is diluted with emulsifier-containing water to the desired concentration. Discs of Chinese cabbage (Brassica pekinensis) infected by all stages of the green peach aphid (Myzus persicae) are sprayed with an active compound preparation of the desired concentration. After the desired period of time, the activity in % is determined. 100% means that all of the aphids have been killed; 0% means that none of the aphids have been killed.

Nilaparvata lugens = Nilaparvata lugens test (NILALU hydroponic treatment); conditions: 20 ppm, after 7 days
Method: Nilaparvata Lugens Test ([…] Hydroponic Treatment) To produce a suitable preparation of active compound, 1 part by weight of active compound is mixed with the stated amount of solvent and emulsifier, and the concentrate is diluted with emulsifier-containing water to the desired concentration. The active compound preparation is pipetted into water. The stated concentration refers to the amount of active compound per volume unit of water (mg/l=ppm), the sample is then infected with the brown planthopper (Nilaparvata lugens). After 7 days, the effect in % is determined 100% means that all of the planthoppers have been killed; 0% means that none of the planthoppers have been killed.

Spodoptera frugiperda = Spodoptera frugiperda test (SPODFR spray treatment); conditions: application rate 500 g/ha, after 7 days, corn leaf discs
Method: Spodoptera Frugiperda Test (SPODFR Spray Treatment) [table] To produce a suitable preparation of active compound, 1 part by weight of active compound is mixed with the stated amount of solvent and emulsifier, and the concentrate is diluted with emulsifier-containing water to the desired concentration. Discs of corn leaves (Zea mays) are sprayed with an active compound preparation of the desired concentration and, after drying, populated with caterpillars of the armyworm (Spodoptera frugiperda). After 7 days, the effect in % is determined. 100% means that all caterpillars have been killed; 0% means that none of the caterpillars have been killed. Spodoptera Frugiperda Test (SPODFR Spray Treatment) To produce a suitable preparation of active compound, 1 part by weight of active compound is mixed with the stated amount of solvent and emulsifier, and the concentrate is diluted with emulsifier-containing water to the desired concentration. Discs of corn leaves (Zea mays) are sprayed with an active compound preparation of the desired concentration and, after drying, populated with caterpillars of the armyworm (Spodoptera frugiperda). After the desired period of time, the activity in % is determined. 100% means that all caterpillars have been killed; 0% means that none of the caterpillars have been killed.

Meloidogyne incognita = Meloidogyne incognita test (MELGIN); conditions: 20 ppm, after 14 days, lettuce roots
Method: Meloidogyne Incognita Test (MELGIN) [table] To prepare a suitable active compound preparation, 1 part by weight of active compound is mixed with the stated amounts of solvent and the concentrate is diluted with water to the desired concentration. Containers are filled with sand, solution of active compound, Meloidogyne incognita egg/larvae suspension and lettuce seeds. The lettuce seeds germinate and the plants develop. On the roots, galls are formed. After 14 days, the nematicidal effect in % is determined by the formation of galls. 100% means that no galls have been found; 0% means that the number of galls on the treated plants corresponds to the untreated control.

Myzus persicae [2] = assay: Myzus persicae test (MYZUPE Tau), leaf dipping; conditions: Myzus persicae, foliar, 144 h, 6dat
Method: Myzus Persicae Test (MYZUPE Tau) To produce a suitable preparation of active compound, 1 part by weight of active compound is mixed with the stated amount of solvent and emulsifier, and the concentrate is diluted with emulsifier-containing water to the desired concentration. Cabbage leaves (Brassica oleracea) which are heavily infested by the green peach aphid (Myzus persicae) are treated by dipping into the active compound preparation of the desired concentration. After the desired period of time, the kill in % is determined. 100% means that all of the aphids have been killed; 0% means that none of the aphids have been killed.

Myzus persicae [3] = assay: Myzus persicae test; hydroponic treatment (MYZUPE Sys); conditions: Myzus persicae, 144 h, 6dat
Method: Myzus Persicae Test; Hydroponic Treatment (MYZUPE Sys)
To produce a suitable preparation of active compound, 1 part by weight of active compound is mixed with the stated amounts of solvent and emulsifier, and the concentrate is diluted with water to the desired concentration.
The active compound preparation is mixed with water. The stated concentration refers to the amount of active compound per volume unit of water (mg/l=ppm). The treated water is filled into vessels containing a pea plant (Pisum sativum), and the plant is the infested with the green peach aphid (Myzus persicae).
After the desired period of time, the kill in % is determined 100% means that all of the aphids have been killed; 0% means that none of the aphids have been killed.

Setaria viridis = assay: Herbicidal pre-emergence action, SETVI; conditions: Setaria viridis, pre-emergence, 20 g/ha
Text: 1. Herbicidal Pre-Emergence Action
• Seeds of monocotyledonous and dicotyledonous weed plants and crop plants are placed in wood-fiber pots in sandy loam and covered with soil. The test compounds, formulated in the form of wettable powders (WP), are then, as an aqueous suspension with a water application rate of 600 l/ha (converted), with 0.2% of wetting agent added, applied at various dosages to the surface of the covering soil. • After the treatment, the pots are placed in a greenhouse and kept under good growth conditions for the test plants. The visual assessment of the damage to the test plants is carried out after a trial period of about 3 weeks by comparison with untreated controls (herbicidal activity in percent: 100% activity=the plants have died, 0% activity=like control plants). • In addition to the compounds mentioned above, the following compounds show an activity of 90-100% against Alopecurus myosuroides, Digitaria sanguinalis, Echinocloa crus-galli, Lolium multiflorum, Setaria viridis and Sorghum halapense when applied by the pre-emergence method at 320 g/ha of a.i.: I-a-2, I-a-10, I-a-11, I-a-12.
1. Herbicidal Pre-Emergence Action (Pre)
(§1) • Seeds of monocotyledonous and dicotyledonous weed plants and crop plants are placed in wood-fiber pots in sandy loam and covered with soil. The test compounds, formulated in the form of wettable powders (WP) or emulsion concentrates (EC), are then, as an aqueous suspension with a water application rate of 600-800 l/ha (converted), with 0.1-0.2% of wetting agent added, applied at various dosages to the surface of the covering soil. • After the treatment, the pots are placed in a greenhouse and kept under good growth conditions for the test plants. […] Herbicidal Post-Emergence Action (Post) • Seeds of monocotyledonous and dicotyledonous weed and crop plants are placed in sandy loam in wood-fiber pots, covered with soil and cultivated in a greenhouse under good growth conditions. 2-3 weeks (stages 10-13 according to the BBCH scale) after sowing, the test plants are treated at a height of 5-10 cm. The test compounds, formulated as wettable powders (WP) or emulsion concentrates (EC), are then, with a water application rate of 600-800 l/ha (converted), with 0.1-0.2% of wetting agent added, sprayed at various dosages onto the green parts of the plants.
(§2) AVEFA: Avena fatua LOLMU: Lolium multiflorum SETVI: Setaria viridis CHEAL: Chenopodium album VIOTR: Viola tricolor VERPE: Veronica persica ORYSA: Oryza sativa TRZAS: Triticum aestivum ZEAMX: Zea mays ALOMY: Alopecurus myosuroides DIGSA: Digitaria sanguinalis ECHCG: Echinocloa crus-galli SORHA: Sorghum halepense AVESA: Avena sativa AMARE: Amaranthus retroflexus SINAL: Sinapis alba STEME: Stellaria media

Alopecurus myosuroides = assay: Herbicidal post-emergence action, ALOMY; conditions: Alopecurus myosuroides, post-emergence, 20 g/ha
Method: (§3) 2. Herbicidal Post-Emergence Action
(§4) • Seeds of monocotyledonous and dicotyledonous weed and crop plants are placed in sandy loam in wood-fiber pots, covered with soil and cultivated in a greenhouse under good growth conditions. 2 to 3 weeks after sowing, the test plants are treated at the one-leaf stage. The test compounds, formulated as wettable powders (WP), are then, with a water application rate of 600 l/ha (converted), with 0.2% of wetting agent added, sprayed at various dosages onto the green parts of the plants. After the test plants have been kept in the greenhouse under optimum growth conditions for about 3 weeks, the activity of the preparations is rated visually in comparison to untreated controls (herbicidal activity in percent: 100% activity=the plants have died, 0% activity=like control plants). • In addition to the compounds mentioned above, the following compounds show an activity of 90-100% against Alopecurus myosuroides, Avena fatua, Digitaria sanguinalis, Echinocloa crus-galli, Lolium multiflorum, Setaria viridis and Sorghum halapense when applied by the post-emergence method at 320 g/ha: I-a-2, I-a-4, I-a-5, I-a-7, I-a-9, I-a-10, I-a-11, I-a-12, I-a-13, I-a-15. • In addition to the compounds mentioned above, the following compounds show an activity of 90-100% against Alopecurus myosuroides, Avena fatua, Echinocloa crus-galli, Lolium multiflorum and Setaria viridis when applied by the post-emergence method at 80 g/ha: I-a-1, I-b-2.
as §1, §2

Digitaria sanguinalis = assay: Herbicidal post-emergence action, DIGSA; conditions: Digitaria sanguinalis, post-emergence, 20 g/ha
Method: as §3, §4, §1, §2

Echinocloa crus-galli = assay: Herbicidal post-emergence action, ECHCG; conditions: Echinochloa crus-galli, post-emergence, 20 g/ha
Method: as §3, §4, §1, §2

| Structure (SMILES) | effect in % (beetle larvae killed) (Phaedon cochleariae) [%] | effect in % (aphids killed) (Myzus persicae [1]) [%] | effect in % (planthoppers killed) (Nilaparvata lugens) [%] | effect in % (caterpillars killed) (Spodoptera frugiperda) [%] | nematicidal effect in % (formation of galls) (Meloidogyne incognita) [%] | inhibition at 20 ppm (Myzus persicae [2]) [%] | inhibition at 20 ppm (Myzus persicae [3]) [%] | inhibition at 20 g/ha (Setaria viridis) [%] | inhibition at 20 g/ha (Alopecurus myosuroides) [%] | inhibition at 20 g/ha (Digitaria sanguinalis) [%] | inhibition at 20 g/ha (Echinocloa crus-galli) [%] |
| --- | --- | --- | --- | --- | --- | --- | --- | --- | --- | --- | --- |
| CCc1cc(C)cc(Br)c1C1=C(OC(=O)C(C)(C)C)NC(C)(C)C1=O [I-a-13] | 83 | 80 | 100 |  |  |  |  |  |  |  |  |
| COc1cc(C)cc(C)c1C1=C(OC(=O)C(C)(C)C)NC2(CCC(OC)CC2)C1=O (stereo not shown) [I-a-2] | 100 | 100 |  | 100 | 100 |  |  |  |  |  |  |
| CCOC(=O)OC1=C(c2c(C)cc(I)cc2CC)C(=O)NC12CCC(OC)CC2 (stereo not shown) [I-1-c-1 known from WO 06/029799] |  |  |  |  |  | 50 | 60 | 20 | 30 | 30 | 30 |

Reference: patent US9204640B2, “2-acyloxy-pyrrolin-4-ones” (BAYER INTELLECTUAL PROPERTY GMBH, priority 2011, dated 2015)
